# Measurements published in PubChem BioAssay AID1963863 (Molecular Pharmacology Branch, DTP, NCI, 2024).
# System: 931267-113-T-J1-PDC KRAS spheroid with HUVEC/MSC, viability
# Experiment: Anticancer human tumor 931267-113-T-J1-PDC patient-derived colon adenocarcinoma cell line growth inhibition [KRAS2]
# Conditions: for IC50: curve of first compound; for viability, T/C: stronger effect = lower value
# In short: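 Combination screen of spheroid viability in tumor-cell co-cultures with endothelial (HUVEC) and mesenchymal stem cell stroma. Each agent was tested in half-log dilutions, topping at clinical Cmax or at 10 microM without a known Cmax.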
# [1] = second compound 0.1 µM, first compound 0.0316 µM
# [2] = second compound 0.1 µM, first compound 0.1 µM
# [3] = second compound 0.316 µM, first compound 0.0316 µM
# [4] = second compound 0.316 µM, first compound 0.1 µM
# [5] = second compound 1 µM, first compound 0.0316 µM
# [6] = second compound 1 µM, first compound 0.1 µM
# [7] = second compound 3.16 µM, first compound 0.0316 µM
# [8] = second compound 3.16 µM, first compound 0.1 µM
# [9] = second compound 10 µM, first compound 0.0316 µM
# [10] = second compound 10 µM, first compound 0.1 µM
# [11] = second compound 0.1 µM, first compound 0.316 µM
# [12] = second compound 0.1 µM, first compound 1 µM
# [13] = second compound 0.1 µM, first compound 3.16 µM
# [14] = second compound 0.1 µM, first compound 10 µM
# [15] = second compound 0.316 µM, first compound 0.316 µM
# [16] = second compound 0.316 µM, first compound 1 µM
# [17] = second compound 0.316 µM, first compound 3.16 µM
# [18] = second compound 0.316 µM, first compound 10 µM
# [19] = second compound 1 µM, first compound 0.316 µM
# [20] = second compound 1 µM, first compound 1 µM
# [21] = second compound 1 µM, first compound 3.16 µM
# [22] = second compound 1 µM, first compound 10 µM
# [23] = second compound 3.16 µM, first compound 0.316 µM
# [24] = second compound 3.16 µM, first compound 1 µM
# [25] = second compound 3.16 µM, first compound 3.16 µM
# [26] = second compound 3.16 µM, first compound 10 µM
# [27] = second compound 10 µM, first compound 0.316 µM
# [28] = second compound 10 µM, first compound 1 µM
# [29] = second compound 10 µM, first compound 3.16 µM
# [30] = second compound 10 µM, first compound 10 µM
# 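Note: compound exposure lasted 7 days before the readout.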
# 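Throughout, for viability, T/C: 100% = DMSO vehicle control viability.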
Structure (SMILES),IC50 (second compound 0.1 µM),IC50 (second compound 0.316 µM),IC50 (second compound 1 µM),IC50 (second compound 3.16 µM),IC50 (second compound 10 µM),"viability, T/C [1]","viability, T/C [2]","viability, T/C [3]","viability, T/C [4]","viability, T/C [5]","viability, T/C [6]","viability, T/C [7]","viability, T/C [8]","viability, T/C [9]","viability, T/C [10]","viability, T/C [11]","viability, T/C [12]","viability, T/C [13]","viability, T/C [14]","viability, T/C [15]",further results
CC(C)n1nc(-c2ccc3oc(N)nc3c2)c2c(N)ncnc21 + CC1OCC2(CCN(c3cnc(Sc4ccnc(N)c4Cl)c(N)n3)CC2)C1N,4.38 nM,3.13 nM,3.53 nM,3.6 nM,7.13 nM,27.6%,26.1%,19.9%,16.7%,25.7%,18.7%,27%,15.6%,19.9%,22.5%,–,–,–,–,–,"viability, T/C (second compound 0.1 µM, first compound 0.000316 µM): 90%; viability, T/C (second compound 0.1 µM, first compound 0.001 µM): 81.6%; viability, T/C (second compound 0.1 µM, first compound 0.00316 µM): 49.5%; viability, T/C (second compound 0.1 µM, first compound 0.01 µM): 42.8%; viability, T/C (second compound 0.316 µM, first compound 0.000316 µM): 85.2%; viability, T/C (second compound 0.316 µM, first compound 0.001 µM): 76.3%; viability, T/C (second compound 0.316 µM, first compound 0.00316 µM): 44.7%; viability, T/C (second compound 0.316 µM, first compound 0.01 µM): 34.9%; viability, T/C (second compound 1 µM, first compound 0.000316 µM): 79.7%; viability, T/C (second compound 1 µM, first compound 0.001 µM): 66.9%; viability, T/C (second compound 1 µM, first compound 0.00316 µM): 51.3%; viability, T/C (second compound 1 µM, first compound 0.01 µM): 36.8%; viability, T/C (second compound 3.16 µM, first compound 0.000316 µM): 68.4%; viability, T/C (second compound 3.16 µM, first compound 0.001 µM): 64.1%; viability, T/C (second compound 3.16 µM, first compound 0.00316 µM): 46.1%; viability, T/C (second compound 3.16 µM, first compound 0.01 µM): 43.9%; viability, T/C (second compound 10 µM, first compound 0.000316 µM): 66.5%; viability, T/C (second compound 10 µM, first compound 0.001 µM): 77.7%; viability, T/C (second compound 10 µM, first compound 0.00316 µM): 62.2%; viability, T/C (second compound 10 µM, first compound 0.01 µM): 45.3%"
CC1(C)CCC(CN2CCN(c3ccc(C(=O)NS(=O)(=O)c4ccc(NCC5CCOCC5)c([N+](=O)[O-])c4)c(Oc4cnc5[nH]ccc5c4)c3)CC2)=C(c2ccc(Cl)cc2)C1 + CC1OCC2(CCN(c3cnc(Sc4ccnc(N)c4Cl)c(N)n3)CC2)C1N,1710 nM,1640 nM,1740 nM,1670 nM,1660 nM,104%,84.1%,91%,81.3%,84.9%,75.9%,61.1%,77.8%,83.7%,77%,87.8%,75.7%,20.9%,8.53%,73.2%,"viability, T/C [16]: 72.8%; viability, T/C [17]: 20.7%; viability, T/C [18]: 3.06%; viability, T/C [19]: 67.5%; viability, T/C [20]: 81.3%; viability, T/C [21]: 20.5%; viability, T/C [22]: 1.45%; viability, T/C [23]: 70.2%; viability, T/C [24]: 70.6%; viability, T/C [25]: 25%; viability, T/C [26]: 0.6%; viability, T/C [27]: 94.5%; viability, T/C [28]: 85.9%; viability, T/C [29]: 5.34%; viability, T/C [30]: 0.28%"
COc1cc(Nc2ncc3c(n2)-c2ccc(Cl)cc2C(c2c(F)cccc2OC)=NC3)ccc1C(=O)O + CC1OCC2(CCN(c3cnc(Sc4ccnc(N)c4Cl)c(N)n3)CC2)C1N,> 10000 nM,6420 nM,848 nM,571 nM,799 nM,69.3%,75.1%,67.4%,68.7%,62.4%,52.4%,53.4%,64.6%,70.2%,65.4%,58.4%,58%,51.7%,54%,57.1%,"viability, T/C [16]: 61.3%; viability, T/C [17]: 49%; viability, T/C [18]: 49.5%; viability, T/C [19]: 54.4%; viability, T/C [20]: 51.5%; viability, T/C [21]: 41.3%; viability, T/C [22]: 31.6%; viability, T/C [23]: 56.8%; viability, T/C [24]: 42%; viability, T/C [25]: 33.3%; viability, T/C [26]: 21.6%; viability, T/C [27]: 51.1%; viability, T/C [28]: 46.8%; viability, T/C [29]: 43.3%; viability, T/C [30]: 15.8%"
COc1cc2nccc(Oc3ccc(NC(=O)C4(C(=O)Nc5ccc(F)cc5)CC4)cc3)c2cc1OC + CC1OCC2(CCN(c3cnc(Sc4ccnc(N)c4Cl)c(N)n3)CC2)C1N,> 10000 nM,2790 nM,3060 nM,4530 nM,2930 nM,87%,116%,81.9%,91.9%,92.8%,95.8%,78.6%,99%,99.2%,101%,102%,88.8%,51.4%,66.6%,84.9%,"viability, T/C [16]: 99.5%; viability, T/C [17]: 45.1%; viability, T/C [18]: 37.4%; viability, T/C [19]: 86.3%; viability, T/C [20]: 88.2%; viability, T/C [21]: 48.1%; viability, T/C [22]: 49.5%; viability, T/C [23]: 91.3%; viability, T/C [24]: 92.1%; viability, T/C [25]: 57.5%; viability, T/C [26]: 33.5%; viability, T/C [27]: 93.3%; viability, T/C [28]: 86.5%; viability, T/C [29]: 47.1%; viability, T/C [30]: 30.5%"
